Test results as given in ChEMBL document CHEMBL4842306, “Pentadecaibins I-V: 15-Residue Peptaibols Produced by a Marine-Derived Trichoderma sp. of the Harzianum Clade” (J Nat Prod, 2021).
pIC50: −log10 of the molar value. Non-standard residues stand in square brackets, D forms with d. Residues, ends and D or L forms follow the SMILES beside them. Phe(ol) = N[C@H](CO)Cc1ccccc1; Aib = CC(C)(N)C(=O)O

Columns and labels:
Candida albicans = test: […] isolate Candida albicans assessed as inhibition of microbial growth incubated for 24 hrs by spectrophotometry; type: functional
KB = test: Cytotoxicity against human KB cells assessed as cell viability after 72 hrs by MTT assay; type: functional, cell-based
Staphylococcus aureus = test: Antibacterial activity against Staphylococcus aureus CIP53.156 assessed as inhibition of microbial growth incubated for 24 hrs by spectrophotometry; type: functional
Escherichia coli = test: Antibacterial activity against Escherichia coli CIP54.8T assessed as inhibition of microbial growth incubated for 24 hrs by spectrophotometry; type: functional

With `CC[C@@](C)(NC(=O)[C@H](CCC(N)=O)NC(=O)C(C)(C)NC(=O)[C@H](CC(C)C)NC(=O)[C@H](C)NC(=O)CNC(=O)C(C)(C)NC(C)=O)C(=O)N[C@H](C(=O)NC(C)(C)C(=O)N[C@@H](C)C(=O)NC(C)(C)C(=O)NC(C)(C)C(=O)NC(C)(C)C(=O)N[C@@H](CCC(N)=O)C(=O)N[C@H](CO)Cc1ccccc1)C(C)C` the MIC (Candida albicans) was > 100 µg/mL, the pIC50 (KB) was 6.10 and the MIC (Staphylococcus aureus) was 25 µg/mL. For the same compound, the MIC (Escherichia coli) was > 100 µg/mL.
For `CC(=O)NC(C)(C)C(=O)NCC(=O)N[C@@H](C)C(=O)N[C@@H](CC(C)C)C(=O)NC(C)(C)C(=O)N[C@@H](CCC(N)=O)C(=O)NC(C)(C)C(=O)N[C@@H](CC(C)C)C(=O)NC(C)(C)C(=O)N[C@@H](C)C(=O)NC(C)(C)C(=O)NC(C)(C)C(=O)NC(C)(C)C(=O)N[C@@H](CCC(N)=O)C(=O)N[C@H](CO)Cc1ccccc1` (Ac-[Aib]GAL[Aib]Q[Aib]L[Aib]A[Aib][Aib][Aib]Q[Phe(ol)]), the MIC (Candida albicans) was > 100 µg/mL, the pIC50 (KB) was 5.37 and the MIC (Staphylococcus aureus) was > 100 µg/mL. The MIC (Escherichia coli) was > 100 µg/mL.
`CC(=O)NC(C)(C)C(=O)N1CCC[C@H]1C(=O)NC(C)(C)C(=O)N[C@@H](C)C(=O)NC(C)(C)C(=O)N[C@@H](C)C(=O)N[C@@H](CCC(N)=O)C(=O)NC(C)(C)C(=O)N[C@H](C(=O)NC(C)(C)C(=O)NCC(=O)N[C@@H](CC(C)C)C(=O)NC(C)(C)C(=O)N1CCC[C@H]1C(=O)N[C@H](C(=O)NC(C)(C)C(=O)NC(C)(C)C(=O)N[C@H](CCC(N)=O)C(=O)N[C@H](CCC(N)=O)C(=O)N[C@H](CO)Cc1ccccc1)C(C)C)C(C)C` was tested, and the pIC50 (KB) was 5.05.
`CC(=O)NC(C)(C)C(=O)NCC(=O)N[C@@H](C)C(=O)N[C@@H](CC(C)C)C(=O)NC(C)(C)C(=O)N[C@@H](CCC(N)=O)C(=O)NC(C)(C)C(=O)N[C@H](C(=O)NC(C)(C)C(=O)N[C@@H](C)C(=O)NC(C)(C)C(=O)NC(C)(C)C(=O)NC(C)(C)C(=O)N[C@@H](CCC(N)=O)C(=O)N[C@H](CO)Cc1ccccc1)C(C)C` (Ac-[Aib]GAL[Aib]Q[Aib]V[Aib]A[Aib][Aib][Aib]Q[Phe(ol)]) was tested, and the MIC (Candida albicans) was > 100 µg/mL, the pIC50 (KB) was 5.62 and the MIC (Staphylococcus aureus) was 25 µg/mL. For the same compound, the MIC (Escherichia coli) was > 100 µg/mL.
`CC[C@@](C)(NC(=O)[C@H](CCC(N)=O)NC(=O)C(C)(C)NC(=O)[C@H](CC(C)C)NC(=O)[C@H](C)NC(=O)CNC(=O)C(C)(C)NC(C)=O)C(=O)N[C@@H](CC(C)C)C(=O)NC(C)(C)C(=O)N[C@@H](C)C(=O)NC(C)(C)C(=O)NC(C)(C)C(=O)NC(C)(C)C(=O)N[C@@H](CCC(N)=O)C(=O)N[C@H](CO)Cc1ccccc1` was tested, and the MIC (Candida albicans) was > 100 µg/mL, the pIC50 (KB) was 6.10 and the MIC (Staphylococcus aureus) was > 100 µg/mL. The MIC (Escherichia coli) was > 100 µg/mL.
In the case of `CC[C@@](C)(NC(=O)[C@H](CC(C)C)NC(=O)[C@H](C)NC(=O)CNC(=O)C(C)(C)NC(C)=O)C(=O)N[C@@H](CCC(N)=O)C(=O)N[C@](C)(CC)C(=O)N[C@H](C(=O)NC(C)(C)C(=O)N[C@@H](C)C(=O)NC(C)(C)C(=O)NC(C)(C)C(=O)NC(C)(C)C(=O)N[C@@H](CCC(N)=O)C(=O)N[C@H](CO)Cc1ccccc1)C(C)C`, the MIC (Candida albicans) was > 100 µg/mL, the pIC50 (KB) was 6.15 and the MIC (Staphylococcus aureus) was 25 µg/mL. The MIC (Escherichia coli) was > 100 µg/mL.
